Source: patent US4632828A, “Pharmaceutical composition” (priority 1984, dated 1986)

Columns and labels:
[1] = Differential Scanning Calorimetry of MAP/swellable polymer systems; type: physicochemical; conditions: DSC; for % Residual of Original Heat of Fusion: relative to pure crystalline MAP
From the text: Alternatively, the grinding of the MAP-swellable polymer mixture can be stopped at any time the original crystalline form of MAP has been transformed into another, more energetic form.

[2] = Solubility (saturation concentration) of MAP/swellable polymer systems; type: physicochemical; conditions: pH 5.5 phosphate buffer, 37° C.
Description: The flasks were placed in a shaking thermostated apparatus and aliquots of sample solutions were taken by filtering through a Millipore membrane. The concentration of MAP in the filtered aliquot was determined both by spectrophotometry (SP8-100, Pye Unicam), after dilution with methanol, and by HPLC (column: Spherisorb S30DS2, Phase Sep.; mobile phase: acetonitrile/water 70/30 v/v; flow rate: 1 ml/min; U.V. detection, λ=242 nm), after dilution with acetonitrile.

Heat of Fusion [1] [J/g]	Melting Point [1]	% Residual of Original Heat of Fusion [1] [%]	Solubility ([2]; 5 min) [µg/mL]	Solubility ([2]; 15 min) [µg/mL]	Solubility ([2]; 1 hr) [µg/mL]	Solubility ([2]; 6 hrs) [µg/mL]	Melting Point ([1]; listed as pure MAP) [°C]	Compound
82.798	205.3 °C	94.1						CC(=O)O[C@]1(C(C)=O)CC[C@H]2[C@@H]3C[C@H](C)C4=CC(=O)CC[C@]4(C)[C@H]3CC[C@@]21C [Micronized pure MAP, 6α-methyl, 17α-hydroxy-progesterone acetate]
88.003	205-206 °C	100	< 0.04	0.32	0.68	1.00	205.6	CC(=O)O[C@]1(C(C)=O)CC[C@H]2[C@@H]3C[C@H](C)C4=CC(=O)CC[C@]4(C)[C@H]3CC[C@@]21C [Pure crystalline MAP, 6α-methyl, 17α-hydroxy-progesterone acetate]
